Test results: patent EP0067612A1, “Penicillin derivatives” (BEECHAM GROUP PLC, priority 1981, dated 1982)
Structures can show the parent of a compound that is named as a salt.

Assays:
Test in all cases: Antibacterial activity, MIC (agar)
Type in all cases: cell-based
[1] = tested on: E. cloacae N1; conditions: Enterobacter cloacae
Source text: (§1) The antibacterial activities of compounds of the present invention (MIC µg/ml)

[2] = tested on: S. faecalis I; conditions: Enterococcus faecalis
Source text: as §1

[3] = tested on: P. mirabilis C 977; conditions: Proteus mirabilis, C977
Source text: as §1

[4] = tested on: E. coli JT 4; conditions: Escherichia coli, JT4
Source text: as §1

[5] = tested on: E. coli NCTC 10418; conditions: Escherichia coli, NCTC10418
Source text: as §1

[6] = tested on: N. catarrhalis 1502
Source text: as §1

[7] = tested on: Ps. aeruginosa Dalgleish; conditions: Pseudomonas aeruginosa, Ps. aeruginosa Dalgleish 10^-2
Source text: as §1

[8] = tested on: P. rettgeri; conditions: Providencia rettgeri
Source text: as §1

[9] = tested on: S. aureus Russell; conditions: Staphylococcus aureus
Source text: as §1

[10] = tested on: E. coli ESS; conditions: Escherichia coli
Source text: as §1

[11] = tested on: S. marcescens US 32; conditions: Serratia marcescens, US32
Source text: as §1

[12] = tested on: K. aerogenes A; conditions: Klebsiella aerogenes
Source text: as §1

[13] = tested on: E. coli JT 425; conditions: Escherichia coli, JT425
Source text: as §1

[14] = tested on: S. aureus Oxford; conditions: Staphylococcus aureus
Source text: as §1

[15] = tested on: P. mirabilis 889; conditions: Proteus mirabilis
Source text: as §1

[16] = tested on: Ps. aeruginosa NCTC 10662; conditions: Pseudomonas aeruginosa
Source text: as §1

[17] = tested on: S. pyogenes CN 10; conditions: Streptococcus pyogenes, CN10
Source text: as §1

[18] = NCTC10662, Ps. aeruginosa NCTC 10662
[19] = NCTC10662, Ps. aeruginosa NCTC 10662 10^-2

Compound: NS(=O)(=O)c1ccc(Nc2ncc(NC(=O)N[C@@H](C(=O)N[C@@H]3C(=O)N4[C@@H](C(=O)O)CS[C@H]34)c3ccccc3)c(O)n2)cc1 [Example 3, 6β-[D,2-{2-(4-Aminosulphonylanilino)-4-hvdroxypyrimidyl-5-aminocarbonylamino}-2-phenyl]acetamidobisnor penicillanic acid, sodium salt]
- MIC [1]: 1 µg/mL
- MIC [2]: 25 µg/mL
- MIC [3]: 0.2 µg/mL
- MIC [4]: > 100 µg/mL
- MIC [5]: 0.5 µg/mL
- MIC [6]: 0.05 µg/mL
- MIC [7]: 50 µg/mL
- MIC [8]: 1 µg/mL
- MIC [9]: 50 µg/mL
- MIC [10]: 0.05 µg/mL
- MIC [11]: 2.5 µg/mL
- MIC [12]: 0.2 µg/mL
- MIC [13]: 5 µg/mL
- MIC [14]: 1 µg/mL
- MIC [15]: > 100 µg/mL
- MIC [16, 18]: 5 µg/mL
- MIC [16, 19]: 2.5 µg/mL
- MIC [17]: 0.2 µg/mL

Compound: NS(=O)(=O)c1ccc(Nc2ncc(NC(=O)N[C@@H](C(=O)N[C@@H]3C(=O)N4[C@@H](C(=O)O)CS[C@H]34)c3ccc(O)cc3)c(O)n2)cc1 [Example 4, 6β-[D,2-2-(4-Aminosulphonylanilino)-4-hydroxypyrimidyl-5-aminocarbonylamino}-2-(4-hydroxyphenyl)]acetamido-bisnorpenicillanic acid, sodium salt]
- MIC [1]: 2.5 µg/mL
- MIC [2]: 25 µg/mL
- MIC [3]: 2.5 µg/mL
- MIC [4]: 100 µg/mL
- MIC [5]: 0.25 µg/mL
- MIC [6]: 0.05 µg/mL
- MIC [7]: 25 µg/mL
- MIC [8]: 2.5 µg/mL
- MIC [9]: 25 µg/mL
- MIC [10]: 0.05 µg/mL
- MIC [11]: 1 µg/mL
- MIC [12]: 0.25 µg/mL
- MIC [13]: 2.5 µg/mL
- MIC [14]: 2.5 µg/mL
- MIC [15]: > 100 µg/mL
- MIC [16, 18]: 2.5 µg/mL
- MIC [16, 19]: 0.5 µg/mL
- MIC [17]: 0.1 µg/mL
